Here are results for twelve compounds from ChEMBL document CHEMBL3351581, “Synthesis of prenylated quinolinecarboxylic acid derivatives and their anti-obesity activities” (Bioorg Med Chem, 2015).

The structures appear in SMILES notation. Calls of active or inactive are those of the source. The calls are words filed in the database; no cut-off is given here.

Data set [1] deals with Liver. The data set can be described thus: Increase in oxygen consumption rate of mitochondrial state 4 respiration in ICR mouse liver fraction at 20 uM by Clark-type oxygen electrode assay. The data set is classed as functional.
The test system of data set [2] is Liver. The data set can be described thus: Increase in oxygen consumption rate of mitochondrial state 3 respiration in ICR mouse liver fraction at 20 uM by Clark-type oxygen electrode assay. In kind it is functional.
For data set [3], the system named is Liver. The data set can be described thus: Toxicity in ICR mouse liver fraction assessed as ROS production at 1 to 20 uM by Clark-type oxygen electrode assay. In kind it is tissue-based.
For data set [4], the system named is Mus musculus. Put plainly: Antiobesity activity in ICR mouse assessed as body weight reduction at 0.4 to 0.8 mg/kg/week, ip for 6 weeks measured after 6 weeks relative to control. Also on record: scale not given: the % may be the effect or the level left. The data set is classed as functional. Conditions: route intraperitoneal.
The subject of data set [5] is Mus musculus. Put plainly: Toxicity in ICR mouse assessed as lesions in liver at 0.4 to 0.8 mg/kg/week, ip for 6 weeks measured after 6 weeks relative to control. The data set is classed as organism-based. Also noted: route intraperitoneal. Conditions: in vivo, 1008 h.
Data set [6] has as its system Liver. The data set can be described thus: Increase in oxygen consumption rate of mitochondrial state 4 respiration in ICR mouse liver fraction at 10 uM by Clark-type oxygen electrode assay. In kind it is functional.
In data set [7] the test system is Mus musculus. The data set can be described thus: Toxicity in ICR mouse assessed as lesions in kidney at 0.4 to 0.8 mg/kg/week, ip for 6 weeks measured after 6 weeks relative to control. In kind it is organism-based. Also noted: route intraperitoneal. As to conditions: in vivo, 1008 h.

For `COc1cc(C(=O)NCC=C(C)C)nc2c(OCC=C(C)C)cccc12`, the outcome with Liver [1] was inactive.

On to `COC(=O)c1cc(OC)c2cccc(OCC=C(C)C)c2n1`, for which, in the data set on Liver [1], the outcome was inactive.

For `COc1cc(C(=O)OCC=C(C)C)nc2c(OCCC(C)C)cccc12`, the outcome with Liver [1] was inactive.

For the compound `CC(C)=CCOC(=O)c1cc(OCC=C(C)C)c2cccc(OCC=C(C)C)c2n1`, the outcome with Liver [2] was inactive. Besides, the Activity result in the data set with Liver [3] is listed as “Non-toxic”; in the data set on Mus musculus [4] it was 6%; in the data set on Mus musculus [5] it was “Non-toxic”; with Mus musculus [7], “Non-toxic”. Moreover, the result with Liver [1] and with Liver [6] was Active.

`COc1cc(C(=O)OCC=C(C)C)nc2c(OCC=C(C)C)cccc12`: in the data set on Liver [2], the result was inactive. Further, the Activity entry with Liver [3] is given as “Non-toxic”. Further, in the data set with Liver [1], the result was Active.

With `COc1cc(C(=O)OC2CCCC2)nc2c(OCC=C(C)C)cccc12`, the result in the data set with Liver [1] was inactive.

Regarding `COc1cc(C(=O)OCCC(C)C)nc2c(OCC=C(C)C)cccc12`, the outcome in the data set with Liver [1] was inactive.

Turning to `COc1cc(C(=O)OCC=C(C)C)nc2c(OC/C=C(\C)CCC=C(C)C)cccc12`, the result in the data set with Liver [1] was inactive.

Take `COc1cc(C(=O)OCC=C(C)C)nc2c(OC3CCCC3)cccc12`: the outcome in the data set with Liver [1] was inactive.

For the compound `COc1cc(C(=O)OCC=C(C)C)nc2c(OC)cccc12`, the outcome in the data set on Liver [1] was inactive.

Regarding `CCCCCOc1cc(C(=O)OCC=C(C)C)nc2c(OCC=C(C)C)cccc12`, the outcome with Liver [1] was Active.

Consider `COc1cc(C(=O)OC/C=C(\C)CCC=C(C)C)nc2c(OCC=C(C)C)cccc12`, for which, in the data set with Liver [1], the result was inactive.
